Experiments:
[1] = target: T1, rat uterine cytosol (estrogen receptor) (Rattus norvegicus, UniProt P06211); assay: Binding to rat uterine cytosol, dextran-coated charcoal
T1 construct: incubated with cytoplasm from the uteri of rats; from tissue; host or cells: uterine cytosol of ovariectomized rats
T1 sequence (P06211 1-600): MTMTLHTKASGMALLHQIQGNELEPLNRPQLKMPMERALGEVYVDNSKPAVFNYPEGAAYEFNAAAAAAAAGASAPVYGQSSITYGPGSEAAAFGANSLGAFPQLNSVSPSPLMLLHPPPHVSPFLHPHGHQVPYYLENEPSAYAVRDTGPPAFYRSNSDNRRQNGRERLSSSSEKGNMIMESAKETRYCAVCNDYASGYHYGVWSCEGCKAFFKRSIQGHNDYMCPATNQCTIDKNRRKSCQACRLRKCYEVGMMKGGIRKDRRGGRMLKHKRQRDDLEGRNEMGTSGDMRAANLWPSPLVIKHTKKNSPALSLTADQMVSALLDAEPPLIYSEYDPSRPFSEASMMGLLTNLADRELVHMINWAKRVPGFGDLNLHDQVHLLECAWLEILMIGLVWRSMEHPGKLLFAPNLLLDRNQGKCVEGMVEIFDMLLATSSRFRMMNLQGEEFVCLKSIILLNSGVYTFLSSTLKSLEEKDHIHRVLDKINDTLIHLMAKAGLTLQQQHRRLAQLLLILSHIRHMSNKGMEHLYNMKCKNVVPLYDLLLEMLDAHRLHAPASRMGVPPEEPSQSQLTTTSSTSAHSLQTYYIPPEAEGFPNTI
Experimental: Metab. […] The homogenate was centrifuged at 4000 g for 10 minutes and the resulting supernatant for 60 minutes at 150,000 g. […] Samples were incubated for 4 hours at 0° to 2° C. Free steroid was removed by addition of 250 μl of a suspension of 0.5 percent dextran-coated charcoal. The tubes were mixed and then centrifuged at […] for 10 minutes.

[2] = target: T2, estrogen receptor of human mammary tumors (Homo sapiens, UniProt P03372); assay: Estrogen receptor assay in human mammary tumor cytosol; format: binding; details: 1.5 mg/ml protein
T2 construct: 124 and 126
T2 sequence (P03372 1-595): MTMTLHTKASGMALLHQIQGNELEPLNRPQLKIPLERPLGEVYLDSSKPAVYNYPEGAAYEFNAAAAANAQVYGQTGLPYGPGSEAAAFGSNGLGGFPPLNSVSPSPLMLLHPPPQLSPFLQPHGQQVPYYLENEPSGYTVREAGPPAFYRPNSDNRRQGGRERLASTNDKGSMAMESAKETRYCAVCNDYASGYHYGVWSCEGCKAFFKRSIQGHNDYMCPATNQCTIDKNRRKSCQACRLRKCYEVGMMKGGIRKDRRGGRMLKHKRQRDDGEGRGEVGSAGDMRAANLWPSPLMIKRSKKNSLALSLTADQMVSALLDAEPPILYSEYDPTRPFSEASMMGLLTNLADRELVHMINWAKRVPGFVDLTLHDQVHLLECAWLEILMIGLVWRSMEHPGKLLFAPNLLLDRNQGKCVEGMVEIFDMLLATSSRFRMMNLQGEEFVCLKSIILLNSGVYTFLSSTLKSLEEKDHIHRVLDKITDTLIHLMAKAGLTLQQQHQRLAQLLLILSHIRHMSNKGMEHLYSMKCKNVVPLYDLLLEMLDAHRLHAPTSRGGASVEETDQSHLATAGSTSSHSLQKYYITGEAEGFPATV
Experimental: Extrogen receptor human mammary tumors were kept frozen in dry ice in a pulverized form. […] The final concentration of cytosolic protein used in the assay was 1.5 mg/ml.
A pool of two different estrogen receptor-positive mammary tumors was studied.

[3] = target: T3, estrogen receptor (calf uterine cytosol) (Bos taurus, UniProt P49884); assay: Competition for the estrogen receptor in calf uterine cytosol; format: binding; details: 125I-E2 0.22 nM, 3H-E2 0.74 nM
T3 construct: Fresh calf uteri obtained from a slaughterhouse; from tissue; host or cells: calf uterus, 150,000 x g cytosol from lyophilized powder
T3 sequence (P49884 1-596): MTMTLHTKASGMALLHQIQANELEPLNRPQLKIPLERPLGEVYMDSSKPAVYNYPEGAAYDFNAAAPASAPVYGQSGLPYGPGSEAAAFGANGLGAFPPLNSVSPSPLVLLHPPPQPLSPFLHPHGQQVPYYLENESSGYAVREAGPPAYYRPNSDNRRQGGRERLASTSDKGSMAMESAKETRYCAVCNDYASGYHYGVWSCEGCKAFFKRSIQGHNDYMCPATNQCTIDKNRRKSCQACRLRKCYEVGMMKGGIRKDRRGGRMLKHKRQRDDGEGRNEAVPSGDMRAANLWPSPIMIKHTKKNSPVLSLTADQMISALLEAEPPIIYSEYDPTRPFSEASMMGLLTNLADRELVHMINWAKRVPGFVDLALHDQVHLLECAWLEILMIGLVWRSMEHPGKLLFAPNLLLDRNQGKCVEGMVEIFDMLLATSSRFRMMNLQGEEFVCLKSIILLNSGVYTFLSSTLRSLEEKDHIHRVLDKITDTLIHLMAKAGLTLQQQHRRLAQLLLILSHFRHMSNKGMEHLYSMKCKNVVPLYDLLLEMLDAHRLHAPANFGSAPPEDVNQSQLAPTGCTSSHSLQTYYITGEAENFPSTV
Experimental: Several compounds, at the two indicated concentrations, were allowed to compete with both labeled steroids for sites in calf uterine cytosol. Incubations were overnight at 4° C., and bound and free steroids were separated with dextran-coated charcoal.

[4] = system: antisera against bovine serum albumin complexes with E2-17-hemisuccinate, E2-6-carboxymethyloxime and E2-3-carboxymethyl ether; assay: Radioimmunoassay with antisteroid antisera; format: binding, rabbits; details: three antisera, various dilutions
Experimental: Antisteroid antisera were produced in rabbits immunized with steroid-bovineserum albumin conjugates.
Varying amounts of E2 dissolved in methanol were added to test tubes and evaporated to dryness. The residues were dissolved in 100 μl of antiserum that had been diluted in 0.1M phosphate, pH 7.0/0.015M sodium azide/0.15M NaCl/0.1% gelatin (PBS buffer). […] Upon completion of the incubation, 100 μl of 0.5% gelatin in PBS buffer was added, followed by 1 ml of PBS buffer containing 2.5 mg of dextran-coated charcoal. The mixture was agitated in a vortex mixer and, after 10 minutes at 4° C., it was centrifuged at 5000×g for 10 minutes at 4° C. Aliquots (0.9 ml) were assayed for radioactivity.
The data also indicate that very sensitive radioimmunoassays could be developed with all three antisera.

C[C@]12CC[C@@H]3c4ccc(O)cc4CC[C@H]3[C@@H]1C[C@@H]([125I])[C@@H]2O [^125 I-E2, 16α-[^125 I]iodoestra-1,3,5(10)-triene-3,17β-diol]
Radioactivity specifically bound, percent of added [1]: 56% | Radioactivity Bound without DES ([1]; 98 μg cytosol protein, 4 hours at 0° to 2° C., added 69,600 (125I) or 63,600 (3H) count/min): 42,600 count/min | Radioactivity specifically bound ([1]; bound without DES minus bound with DES): 38,800 count/min | Radioactivity Bound with DES ([1]; with 7×10^-7 M DES (nonspecific binding)): 3,800 count/min | receptor concentration found with the ligand ([2]; mammary tumor pool no. 124): 24 fmol/mg of protein | receptor concentration found with the ligand ([2]; mammary tumor pool no. 126): 72 fmol/mg | % B0 (initial specific binding of tracer alone) [3]: 40% | binding of tracer to antisera [4]: bound to all three antisera
